# Data: PubChem BioAssay (NCI)
#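 Method: 48-hour compound exposure of cells in 96-well plates, five concentrations, linear interpolation of endpoints. Abbreviation: GI50, concentration required for 50% inhibition of growth. TGI: concentration producing complete growth inhibition.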
# Assays:
# Experiment in all cases: inhibition of tumour cell growth, NCI panel, 48 h
# OVCAR-4 ovarian = test system: OVCAR-4 ovarian
# CAKI-1 renal = test system: CAKI-1 renal
# K-562 leukemia = test system: K-562 leukemia
# CCRF-CEM leukemia = test system: CCRF-CEM leukemia
# PC-3 prostate = test system: PC-3 prostate
# HCT-116 colon = test system: HCT-116 colon
# A498 renal = test system: A498 renal
# NCI-H23 lung = test system: NCI-H23 lung
# MALME-3M melanoma = test system: MALME-3M melanoma
# RPMI-8226 leukemia = test system: RPMI-8226 leukemia
structure (smiles),measurement,setting,value
COCCCC(NC(=O)C(CC(C)C)NC(=O)OCc1ccc(OC)cc1)C(N)=O (centres undefined),GI50,OVCAR-4 ovarian,47.2 µg/mL
C=CCN(CC=C)C(=O)[C@H](CC)[C@@H]1CC[C@@H](C)[C@@H]([C@H](C)[C@@H](O)[C@@H](C)C(=O)[C@H](CC)C2O[C@]3(C=CC(=O)[C@]4(CC[C@@](C)([C@H]5CC[C@](O)(CC)[C@H](C)O5)O4)O3)[C@H](C)C[C@@H]2C)O1 (some centres undefined),GI50,CAKI-1 renal,1960 nM
same,TGI,CAKI-1 renal,> 100 µM
same,GI50,K-562 leukemia,2310 nM
same,TGI,K-562 leukemia,> 100 µM
same,GI50,CCRF-CEM leukemia,2650 nM
same,TGI,CCRF-CEM leukemia,> 100 µM
same,GI50,PC-3 prostate,2020 nM
same,TGI,PC-3 prostate,> 100 µM
same,GI50,HCT-116 colon,2760 nM
same,TGI,HCT-116 colon,> 100 µM
C=CC1CN2CCC1CC2C(O)c1ccnc2ccc(OC)cc12 (centres undefined),GI50,A498 renal,> 100 µM
same,TGI,A498 renal,> 100 µM
same,GI50,NCI-H23 lung,> 100 µM
same,TGI,NCI-H23 lung,> 100 µM
same,GI50,MALME-3M melanoma,> 100 µM
same,TGI,MALME-3M melanoma,> 100 µM
same,GI50,RPMI-8226 leukemia,53 µM
same,TGI,RPMI-8226 leukemia,> 100 µM
